Patent US9303019B2, “Amino-pyrroline derivatives, and use thereof in the prevention and/or treatment of metabolic syndrome” (UNIVERSITE DE STRASBOURG, priority 2012, dated 2016)

Tests used:
I1 receptor = I1 receptor (Rattus norvegicus, UniProt Q4G017); test: Competitive binding to [125I]-PIC in membranes of PC12 cells; details: PC12 cell membranes
Protocol: The PC-12 cells were cultured in 75-cm^2 dishes in DMEM medium (1000 mg/l glucose) supplemented with 10% FBS inactivated by treatment at 56° C., 100 U/ml penicillin and 100 μg/ml streptomycin. When the cells reached confluence (3 to 4 days after the start of culture) they were harvested and passaged via the action of 0.25% trypsin for 2 minutes at 37° C. For the specific binding assays, the medium was removed and the cells stored by freezing to −20° C. until use with the membrane preparation.
The frozen PC12 cells were recovered by scraping in ice-cold Tris-HEPES buffer (5 mM Tris-HEPES, pH 7.7, 0.5 mM EDTA, 0.5 mM EGTA and 0.5 mM MgCl2) and Potter homogenized. After centrifuging at 75,000 g for 20 min, the residue was washed in ice-cold Tris-HEPES buffer then again centrifuged. This last operation was performed twice. […]
The reaction was halted by rapid vacuum filtration through GF/B fibre glass filters treated with 0.3% PEI using filtering equipment of Brandel® type, followed by three rapid washings of the filters using 3 ml of ice-cold 50 mM Tris-HCl buffer, pH 7.4. The radioactivity retained on the dried filters was determined using a Minaxi gamma counter (Packard, Meriden, CT, USA). Non-specific binding was determined by [^125I]PIC binding in the presence of 10 μM PIC and represented about 43% of total radioactivity.

3T3-L1 adipocytes = test: Secretion of adiponectin by differentiated 3T3-L1 adipocytes (ELISA); format: cell-based, murine; details: 3 μmol/l, 6 h; control 212.6±19.1
Protocol: 3T3-L1 murine preadipocytes were cultured to confluence at 37° C. in DMEM medium containing 4.5 g/litre of D-glucose, 10% FCS and antibiotics. At confluence, differentiation of the 3T3-L1 adipocytes was initiated through the addition over 48 h of a mixture containing 100 μM methyl-isobutylxanthine, 100 nm dexamethasone and 175 nM insulin. The cells were then passaged every 2-3 days in DMEM, 10% FCS and 175 nM insulin. More than 95% of cells had the phenotype of mature adipocytes 10 days after confluence was reached.
To determine the secretion of adiponectin by mature adipocytes, differentiated 3T3-L1 adipocytes (10 days after confluence) were placed in culture in 12-well plates and washed three times with DMEM, then cultured for 6 h in DMEM alone, in the absence or presence of 3 μM of compound 1. In some wells the antagonist selective for the imidazoline receptors I1, efaroxan, was added (100 μM) 30 min before exposure to compound 1.
The culture medium was then recovered, centrifuged for 3 min at 10 000 g to remove cell contaminants, and the supernatant was stored at −80° C. until use. After two washings in cold PBS, the adipocytes were collected in PBS, homogenized and stored at −80° C. An aliquot of adipocyte homogenate was stored for protein determination. The adiponectin was measured using an ELISA kit following the manufacturer's recommendations. The adiponectin concentration was normalized with the cell protein content.

α2-adrenergic receptors = test: Binding assay of the α2-adrenergic receptors on CHO cell membranes with [3H]RX821002; parameters: species or system human
Protocol: These membranes (30 μg proteins/ml for CHO-hα2A and CHO-hα2B, 100 μg protein/ml for CHO-hα2C) were incubated for 60 min at ambient temperature in binding buffer (33 mM Tris-HCl, 1 mM EDTA, pH 7.5) in a final volume of 500 μL containing 0.8 or 1 or 2 nM [^3H]RX821002 respectively for the adrenergic receptors hα2A, hα2B and hα2C.
Incubation was halted by rapid vacuum filtration through GF/C glass fibre filters followed by three successive washings in ice-cold binding buffer.
Non-specific binding was determined using 10 μM phentolamine.
The competitive assays were analyzed by non-linear regression using the GraphPad programme.
Ki values were determined using the method described by Cheng and Prussof (Cheng, Y. C.; Prusoff, W. H. Relationship between the Inhibition Constant (Ki) and the Concentration of Inhibitor which causes 50 percent Inhibition (I50) of an Enzymatic Reaction. Biochem. Pharmacol. 1973, 22, 3099-3108).

SHHF rats = test: Chronic treatment: glucose tolerance test (IVGTT) in SHHF rats; format: in vivo, rat; details: 20 mg/kg/d, 12 weeks; glucose 0.5 g/kg i.v.; control 710±37
Protocol: At the end of treatment, the SHHF rats were anesthetized with sodium pentobarbital (50 mg/kg i.p.) after a fasting time of 18 h. The left femoral vein was catheterized to take blood samples for the different dosages. To perform the glucose tolerance test a solution of glucose (0.5 g/kg, i.v.) was administered and the plasma concentrations of glucose were determined after 3, 6, 10, 15, 30 and 45 minutes.
Male SHHF rats (spontaneously hypertensive, heart failure) aged 12 weeks were used for this study (Charles River breeding centre, L'Arbresle, France).
Compound 1 was administered in the drinking water for 12 weeks at a dose of 20 mg/kg/d (n=17). Water consumption was regularly measured to adjust the concentration of compound 1. Non-treated control SHHF rats had access to normal water (n=10).
A glucose solution of 0.5 g/kg was administered via intravenous route. The plasma concentration of glucose was evaluated using a glucometer before injection into animals that had fasted 18 h, and then 3, 6, 10, 15, 30 and 45 min after administration of the glucose (Accu Check Go, Roche Diagnostics, Meylan, France). Area under curve values (AUC) were then determined to compare the groups.

Chain of I1 receptor (Q4G017 whole entry, looked up): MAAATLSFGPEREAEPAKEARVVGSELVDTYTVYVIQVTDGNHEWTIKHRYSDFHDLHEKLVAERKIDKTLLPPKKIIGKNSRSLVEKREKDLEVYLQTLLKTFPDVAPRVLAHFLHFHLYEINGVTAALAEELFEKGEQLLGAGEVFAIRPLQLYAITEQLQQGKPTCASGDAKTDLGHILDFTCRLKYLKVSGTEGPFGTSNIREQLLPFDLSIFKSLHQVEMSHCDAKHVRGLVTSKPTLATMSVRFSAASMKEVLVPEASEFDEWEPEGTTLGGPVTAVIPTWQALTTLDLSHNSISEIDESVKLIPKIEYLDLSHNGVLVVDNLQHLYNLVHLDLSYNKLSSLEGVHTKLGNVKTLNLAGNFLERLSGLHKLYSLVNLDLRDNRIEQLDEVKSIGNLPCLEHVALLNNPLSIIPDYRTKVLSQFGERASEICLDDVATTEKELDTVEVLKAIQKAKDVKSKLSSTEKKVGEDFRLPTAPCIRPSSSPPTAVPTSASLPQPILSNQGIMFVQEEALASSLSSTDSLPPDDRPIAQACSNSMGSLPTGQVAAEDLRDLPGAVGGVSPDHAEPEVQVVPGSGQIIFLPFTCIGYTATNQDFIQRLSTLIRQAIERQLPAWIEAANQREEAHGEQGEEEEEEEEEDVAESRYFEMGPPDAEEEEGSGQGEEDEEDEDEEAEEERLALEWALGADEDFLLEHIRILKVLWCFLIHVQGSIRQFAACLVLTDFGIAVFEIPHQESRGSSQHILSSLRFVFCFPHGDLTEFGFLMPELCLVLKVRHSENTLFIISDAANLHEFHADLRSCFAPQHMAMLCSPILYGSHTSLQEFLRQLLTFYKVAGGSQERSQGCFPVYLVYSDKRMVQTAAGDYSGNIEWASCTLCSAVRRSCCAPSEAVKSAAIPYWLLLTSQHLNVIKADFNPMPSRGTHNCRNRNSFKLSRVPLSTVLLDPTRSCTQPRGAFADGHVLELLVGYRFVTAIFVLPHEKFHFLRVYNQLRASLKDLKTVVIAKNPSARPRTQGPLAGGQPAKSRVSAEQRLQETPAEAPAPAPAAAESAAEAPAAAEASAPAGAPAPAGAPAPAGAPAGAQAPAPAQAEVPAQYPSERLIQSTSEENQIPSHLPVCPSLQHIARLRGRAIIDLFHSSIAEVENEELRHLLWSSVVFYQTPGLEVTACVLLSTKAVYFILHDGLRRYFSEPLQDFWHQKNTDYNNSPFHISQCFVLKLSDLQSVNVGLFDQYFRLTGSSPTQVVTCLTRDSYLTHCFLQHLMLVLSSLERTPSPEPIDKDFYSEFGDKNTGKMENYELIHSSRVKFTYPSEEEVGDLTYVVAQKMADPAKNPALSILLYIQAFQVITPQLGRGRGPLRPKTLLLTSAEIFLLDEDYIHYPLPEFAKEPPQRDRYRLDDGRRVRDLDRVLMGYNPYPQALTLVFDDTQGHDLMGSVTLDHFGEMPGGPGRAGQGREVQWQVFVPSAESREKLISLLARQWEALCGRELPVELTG

Cc1c(Cl)cccc1NC1=NCC(C)C1.Cl (centres unmarked) [Compound 1, (3-Chloro-2-methyl-phenyl)-(4-methyl-4,5-dihydro-3H-pyrrol-2-yl)-amine hydrochloride]
share of sites with high affinity (I1 receptor): 55% | secretion of adiponectin (3T3-L1 adipocytes): 378±38 ng/ml/mg of proteins | Ki (α2-adrenergic receptors; CHO cells): > 10 µM | displacement at the α2-adrenergic receptor (α2-adrenergic receptors; concentration of 10^−5 M): No significant displacement | AUC after the glucose tolerance test (SHHF rats): 556 ± 20 mmol·min/L
